Test system: KRAS-mutant PDC tumor spheroid with HUVEC/MSC, viability
Assay: Anticancer human tumor 327498-153-R-J2-PDC patient-derived uterine carcinosarcoma cell line growth inhibition [KRAS2]
Conditions: for IC50: curve of first compound; for viability, T/C: stronger effect = lower value
Summary of the method: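 KRAS-mutant tumor cells were grown as spheroids with HUVEC endothelial cells and human MSCs as stroma. Targeted agents were tested alone and with KRAS pathway inhibitors. Doses started at or near clinical Cmax, or 10 microM, descending half-log.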

[1] = second compound 0.0316 µM, first compound 0.0316 µM
[2] = second compound 0.0316 µM, first compound 0.1 µM
[3] = second compound 0.0316 µM, first compound 0.316 µM
[4] = second compound 0.0316 µM, first compound 1 µM
[5] = second compound 0.0316 µM, first compound 3.16 µM
[6] = second compound 0.1 µM, first compound 0.01 µM
[7] = second compound 0.1 µM, first compound 0.0316 µM
[8] = second compound 0.1 µM, first compound 0.1 µM
[9] = second compound 0.1 µM, first compound 0.316 µM
[10] = second compound 0.1 µM, first compound 1 µM
[11] = second compound 0.1 µM, first compound 3.16 µM
[12] = second compound 0.316 µM, first compound 0.01 µM
[13] = second compound 0.316 µM, first compound 0.0316 µM
[14] = second compound 0.316 µM, first compound 0.1 µM
[15] = second compound 0.316 µM, first compound 0.316 µM
[16] = second compound 0.316 µM, first compound 1 µM
[17] = second compound 0.316 µM, first compound 3.16 µM
[18] = second compound 1 µM, first compound 0.01 µM
[19] = second compound 1 µM, first compound 0.0316 µM
[20] = second compound 1 µM, first compound 0.1 µM
[21] = second compound 1 µM, first compound 0.316 µM
[22] = second compound 1 µM, first compound 1 µM
[23] = second compound 1 µM, first compound 3.16 µM
[24] = second compound 3.16 µM, first compound 0.01 µM
[25] = second compound 3.16 µM, first compound 0.0316 µM
[26] = second compound 3.16 µM, first compound 0.1 µM
[27] = second compound 3.16 µM, first compound 0.316 µM
[28] = second compound 3.16 µM, first compound 1 µM
[29] = second compound 3.16 µM, first compound 3.16 µM
[30] = second compound 0.0316 µM, first compound 10 µM
[31] = second compound 0.1 µM, first compound 10 µM
[32] = second compound 0.316 µM, first compound 10 µM
[33] = second compound 1 µM, first compound 10 µM
[34] = second compound 3.16 µM, first compound 10 µM
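Also: spheroids exposed to agents for seven days before reading.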
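For viability, T/C in this document: 100% = DMSO vehicle wells so lower means fewer viable cells.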

CC1COCCN1c1cc(-c2ccnn2C)c2ccnc(-c3ccn[nH]3)c2n1 (stereo not given) + C=CC(=O)N1CCN(c2nc(OCC3CCCN3C)nc3c2CCN(c2cccc4cccc(C)c24)C3)CC1CC#N
IC50 (second compound 0.0316 µM): 12.5 nM | IC50 (second compound 0.1 µM): 10 nM | IC50 (second compound 0.316 µM): < 10 nM | IC50 (second compound 1 µM): < 10 nM | IC50 (second compound 3.16 µM): < 10 nM | viability, T/C (second compound 0.0316 µM, first compound 0.01 µM): 55.6% | viability, T/C [1]: 26.6% | viability, T/C [2]: 8.55% | viability, T/C [3]: 6.25% | viability, T/C [4]: 6.05% | viability, T/C [5]: 5.16% | viability, T/C [6]: 50.2% | viability, T/C [7]: 21% | viability, T/C [8]: 9.02% | viability, T/C [9]: 5.92% | viability, T/C [10]: 6.34% | viability, T/C [11]: 5.2% | viability, T/C [12]: 35.1% | viability, T/C [13]: 21.6% | viability, T/C [14]: 7.42% | viability, T/C [15]: 4.41% | viability, T/C [16]: 4.61% | viability, T/C [17]: 4.35% | viability, T/C [18]: 29.9% | viability, T/C [19]: 14.6% | viability, T/C [20]: 3.87% | viability, T/C [21]: 3.63% | viability, T/C [22]: 4.58% | viability, T/C [23]: 3.92% | viability, T/C [24]: 0.17% | viability, T/C [25]: 0.63% | viability, T/C [26]: 0.14% | viability, T/C [27]: 0.14% | viability, T/C [28]: 0.29% | viability, T/C [29]: 0.22%

CC1OCC2(CCN(c3cnc(Sc4ccnc(N)c4Cl)c(N)n3)CC2)C1N (stereo not given) + C=CC(=O)N1CCN(c2nc(OCC3CCCN3C)nc3c2CCN(c2cccc4cccc(C)c24)C3)CC1CC#N
IC50 (second compound 0.0316 µM): < 31.6 nM | IC50 (second compound 0.1 µM): < 31.6 nM | IC50 (second compound 0.316 µM): < 31.6 nM | IC50 (second compound 1 µM): < 31.6 nM | IC50 (second compound 3.16 µM): < 31.6 nM | viability, T/C [1]: 44% | viability, T/C [2]: 40.3% | viability, T/C [3]: 23.9% | viability, T/C [4]: 22.6% | viability, T/C [5]: 19.6% | viability, T/C [30]: 14.9% | viability, T/C [7]: 41.2% | viability, T/C [8]: 32.9% | viability, T/C [9]: 24.9% | viability, T/C [10]: 21.2% | viability, T/C [11]: 16.2% | viability, T/C [31]: 16.4% | viability, T/C [13]: 40.6% | viability, T/C [14]: 30.9% | viability, T/C [15]: 24.4% | viability, T/C [16]: 20.4% | viability, T/C [17]: 16.4% | viability, T/C [32]: 15.3% | viability, T/C [19]: 33% | viability, T/C [20]: 24.2% | viability, T/C [21]: 23.1% | viability, T/C [22]: 19.3% | viability, T/C [23]: 14.3% | viability, T/C [33]: 13.5% | viability, T/C [25]: 0.14% | viability, T/C [26]: 0.15% | viability, T/C [27]: 0.14% | viability, T/C [28]: 0.13% | viability, T/C [29]: 0.15% | viability, T/C [34]: 0.24%

Cn1nccc1Nc1nccc(-c2cc3c(s2)C(C)(C)N(CCN2CCOCC2)C3=O)n1 + C=CC(=O)N1CCN(c2nc(OCC3CCCN3C)nc3c2CCN(c2cccc4cccc(C)c24)C3)CC1CC#N
IC50 (second compound 0.0316 µM): 422 nM | IC50 (second compound 0.1 µM): 227 nM | IC50 (second compound 0.316 µM): < 31.6 nM | IC50 (second compound 1 µM): < 31.6 nM | IC50 (second compound 3.16 µM): < 31.6 nM | viability, T/C [1]: 62.5% | viability, T/C [2]: 54.6% | viability, T/C [3]: 55.6% | viability, T/C [4]: 25.2% | viability, T/C [5]: 40.4% | viability, T/C [30]: 34.7% | viability, T/C [7]: 60.2% | viability, T/C [8]: 62.1% | viability, T/C [9]: 45.5% | viability, T/C [10]: 33% | viability, T/C [11]: 36.2% | viability, T/C [31]: 28.8% | viability, T/C [13]: 42.9% | viability, T/C [14]: 45% | viability, T/C [15]: 37.6% | viability, T/C [16]: 33.6% | viability, T/C [17]: 31.1% | viability, T/C [32]: 27.6% | viability, T/C [19]: 39.6% | viability, T/C [20]: 31.1% | viability, T/C [21]: 29.7% | viability, T/C [22]: 33.3% | viability, T/C [23]: 30.3% | viability, T/C [33]: 21.3% | viability, T/C [25]: 0.15% | viability, T/C [26]: 0.17% | viability, T/C [27]: 0.15% | viability, T/C [28]: 0.16% | viability, T/C [29]: 0.54% | viability, T/C [34]: 0.21%

CC(=O)OC12COC1CC(O)C1(C)C(=O)C(O)C3=C(C)C(OC(=O)C(O)C(NC(=O)OC(C)(C)C)c4ccccc4)CC(O)(C(OC(=O)c4ccccc4)C21)C3(C)C (stereo not given) + CC1OCC2(CCN(c3cnc(Sc4ccnc(N)c4Cl)c(N)n3)CC2)C1N
IC50 (second compound 0.1 µM): < 10 nM | IC50 (second compound 0.316 µM): < 10 nM | IC50 (second compound 1 µM): < 10 nM | IC50 (second compound 3.16 µM): < 10 nM | IC50 (second compound 10 µM): < 10 nM | viability, T/C [6]: 7.15% | viability, T/C [7]: 5.15% | viability, T/C [8]: 5.38% | viability, T/C [9]: 6.78% | viability, T/C [10]: 9.97% | viability, T/C [11]: 11.7% | viability, T/C [12]: 7.22% | viability, T/C [13]: 4.87% | viability, T/C [14]: 5.16% | viability, T/C [15]: 6.51% | viability, T/C [16]: 8.59% | viability, T/C [17]: 12.2% | viability, T/C [18]: 8.68% | viability, T/C [19]: 6.9% | viability, T/C [20]: 11% | viability, T/C [21]: 6.11% | viability, T/C [22]: 8.45% | viability, T/C [23]: 11.8% | viability, T/C [24]: 6.83% | viability, T/C [25]: 6.18% | viability, T/C [26]: 5.94% | viability, T/C [27]: 6.88% | viability, T/C [28]: 9.05% | viability, T/C [29]: 10.5% | viability, T/C (second compound 10 µM, first compound 0.01 µM): 12.6% | viability, T/C (second compound 10 µM, first compound 0.0316 µM): 6.42% | viability, T/C (second compound 10 µM, first compound 0.1 µM): 9.06% | viability, T/C (second compound 10 µM, first compound 0.316 µM): 5.82% | viability, T/C (second compound 10 µM, first compound 1 µM): 10.8% | viability, T/C (second compound 10 µM, first compound 3.16 µM): 10.4%

Source: PubChem BioAssay AID1963867 (Molecular Pharmacology Branch, DTP, NCI, 2024)
